Test results published in PubChem BioAssay AID248 (DTP/NCI, 2004).
“And” between values parts separate entries of the source, which are not always exact repeats. Identical values can stand only once. Toxic doses and inconclusive results are not listed. Cut-off read from the data, not from the text of the source: active = T/C of 150% or more; inactive = T/C below 125%. Square brackets hold non-standard residues; d marks the D form. Peptide text beside a SMILES is read from it. * marks the point of attachment. ξ: configuration not given here. ξF = NC(Cc1ccccc1)C(=O)O; Cbz = O=C(OCc1ccccc1)*

System: L1210 leukemia ip in BDF1 mice, survival T/C
Assay: NCI In Vivo Anticancer Drug Screen. Data for tumor model L1210 Leukemia (intraperitoneal) in B6D2F1 (BDF1) mice
Details: higher = longer survival
How it was run: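 Tumor was transplanted into mice, which were then dosed with test compound or vehicle alone. Survival was recorded for each group, and the treated figure was expressed relative to the control figure.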

[1] = endpoint: mean survival time, dose: 100.0 mg/kg/injection, schedule: Q01DX009 (ip), vehicle: Klucel (hydroxypropylcellulose) (HPC)
[2] = endpoint: mean survival time, dose: 200.0 mg/kg/injection, schedule: Q01DX009 (ip), vehicle: Klucel (hydroxypropylcellulose) (HPC)
[3] = endpoint: mean survival time, dose: 400.0 mg/kg/injection, schedule: Q01DX009 (ip), vehicle: Klucel (hydroxypropylcellulose) (HPC)
[4] = endpoint: mean survival time, dose: 100.0 mg/kg/injection, schedule: Q01DX001 (ip), vehicle: carboxymethylcellulose (CMC)
[5] = endpoint: mean survival time, dose: 200.0 mg/kg/injection, schedule: Q01DX001 (ip), vehicle: carboxymethylcellulose (CMC)
[6] = endpoint: mean survival time, dose: 75.0 mg/kg/injection, schedule: Q01DX001 (ip), vehicle: saline
[7] = endpoint: mean survival time, dose: 150.0 mg/kg/injection, schedule: Q01DX001 (ip), vehicle: saline
[8] = endpoint: mean survival time, dose: 100.0 mg/kg/injection, schedule: Q04DX003 (ip), vehicle: saline with Tween-80
[9] = endpoint: mean survival time, dose: 200.0 mg/kg/injection, schedule: Q04DX003 (ip), vehicle: saline with Tween-80
[10] = endpoint: mean survival time, dose: 400.0 mg/kg/injection, schedule: Q04DX003 (ip), vehicle: saline with Tween-80
[11] = endpoint: mean survival time, dose: 50.0 mg/kg/injection, schedule: Q01DX009 (ip), vehicle: saline with Tween-80

Measured: T/C

O=C(Nc1ccccc1C(=O)N/N=C/c1cccc(O)c1)c1ccccc1
inactive: [1] 103 % of control | [2] 89 % of control | [3] 97 % of control

COc1ccccc1CN1CCCN(Cc2ccccc2OC)C1c1cc(I)cc(I)c1O
inactive: [4] 98 % of control | [5] 98 % of control | endpoint: mean survival time, dose: 400.0 mg/kg/injection, schedule: Q01DX001 (ip), vehicle: carboxymethylcellulose (CMC) 93 % of control

CCOC(=O)C(=N\Nc1ccc(C)c(C)c1)/C(C)=N\NC(N)=S
inactive: [6] 87 % of control | [7] 89 % of control

S=c1nc(-c2ccccc2)[nH][nH]1
inactive: [8] 97 % of control | [9] 98 % of control | [10] 88 % of control

O=c1[nH]cc(Sc2ccccc2)c(=O)[nH]1
inactive: [8] 101 % of control | [9] 93 % of control | [10] 96 % of control

COc1cc2ccc3c(c2cc1OC)CCc1cnoc1-3
inactive: [8] 95 % of control | [9] 98 % of control | [10] 98 % of control

CC1=CC2=C(C=O)C(=O)[C@](C)(O)[C@@H](O)C2=CO1
inactive: [11] 109 % of control | [8] 93 % of control | [9] 117 % of control

CCN(CC)CCOc1ccc(C=O)cc1
inactive: endpoint: mean survival time, dose: 100.0 mg/kg/injection, schedule: Q04DX002 (ip), vehicle: saline 99 % of control | endpoint: mean survival time, dose: 200.0 mg/kg/injection, schedule: Q04DX002 (ip), vehicle: saline 95 % of control

NC(=O)OCC(COC(N)=O)(c1ccccc1)c1ccccc1
inactive: endpoint: mean survival time, dose: 45.0 mg/kg/injection, schedule: Q01DX001 (ip), vehicle: saline 101 % of control | endpoint: mean survival time, dose: 67.0 mg/kg/injection, schedule: Q01DX001 (ip), vehicle: saline 95 % of control and 101 % of control | endpoint: mean survival time, dose: 100.0 mg/kg/injection, schedule: Q01DX001 (ip), vehicle: saline 98 % of control | [7] 95 % of control and 104 % of control

CC12CCC(Cl)(CC1O)C2(C)C (configuration not stated)
inactive: [6] 102 % of control | [7] 97 % of control

Nc1c(F)c(N)c(F)c(F)c1F
inactive: endpoint: mean survival time, dose: 5.0 mg/kg/injection, schedule: Q01DX001 (ip), vehicle: acetone 98 % of control | endpoint: mean survival time, dose: 10.0 mg/kg/injection, schedule: Q01DX001 (ip), vehicle: acetone 121 % of control | endpoint: mean survival time, dose: 20.0 mg/kg/injection, schedule: Q01DX001 (ip), vehicle: acetone 107 % of control | endpoint: mean survival time, dose: 20.0 mg/kg/injection, schedule: Q04DX002 (ip), vehicle: saline with Tween-80 106 % of control and 115 % of control | endpoint: mean survival time, dose: 40.0 mg/kg/injection, schedule: Q01DX001 (ip), vehicle: acetone 106 % of control | endpoint: mean survival time, dose: 40.0 mg/kg/injection, schedule: Q04DX002 (ip), vehicle: saline with Tween-80 95 % of control and 105 % of control | endpoint: mean survival time, dose: 80.0 mg/kg/injection, schedule: Q01DX001 (ip), vehicle: acetone 101 % of control | endpoint: mean survival time, dose: 80.0 mg/kg/injection, schedule: Q04DX002 (ip), vehicle: saline with Tween-80 98 % of control and 114 % of control

COC(=O)CN(c1ccc(C#N)c2ccccc12)S(=O)(=O)c1ccccc1
inactive: [8] 94 % of control | [9] 96 % of control | [10] 94 % of control

N#C[C@H](OC1OC(COC2OC(CO)C(O)C(O)C2O)C(O)C(O)C1O)c1ccccc1 (some centres not stated)
inactive: endpoint: mean survival time, dose: 100.0 mg/kg/injection, schedule: Q01DX009 (ip), vehicle: saline 102 % of control | endpoint: mean survival time, dose: 200.0 mg/kg/injection, schedule: Q01DX009 (ip), vehicle: saline 101 % of control | endpoint: mean survival time, dose: 400.0 mg/kg/injection, schedule: Q01DX009 (ip), vehicle: saline 98 % of control | endpoint: median survival time, dose: 25.0 mg/kg/injection, schedule: Q01DX009 (ip), vehicle: water 101 % of control | endpoint: median survival time, dose: 25.0 mg/kg/injection, schedule: Q01DX Z (ip), vehicle: water 100 % of control | endpoint: median survival time, dose: 50.0 mg/kg/injection, schedule: Q01DX009 (ip), vehicle: water 92 % of control | endpoint: median survival time, dose: 50.0 mg/kg/injection, schedule: Q01DX Z (ip), vehicle: water 87 % of control | endpoint: median survival time, dose: 100.0 mg/kg/injection, schedule: Q01DX009 (ip), vehicle: water 51 % of control | endpoint: median survival time, dose: 200.0 mg/kg/injection, schedule: Q01DX009 (ip), vehicle: water 51 % of control | endpoint: median survival time, dose: 400.0 mg/kg/injection, schedule: Q01DX009 (ip), vehicle: water 93 % of control | endpoint: median survival time, dose: 400.0 mg/kg/injection, schedule: Q01DX Z (ip), vehicle: water 87 % of control

O=C(CN1C(=O)C2CCCCC2C1=O)N1CC1 (configuration not stated)
inactive: [4] 110 % of control | [5] 103 % of control

CCCCCCCCCCCCCCCCCC(=O)N/N=C/C(=C\c1ccccc1)CCCCCC
inactive: [1] 90 % of control | [2] 98 % of control | [3] 93 % of control

CC(=O)Nc1ccc2c([N+](=O)[O-])cccc2c1-c1c(NC(C)=O)ccc2c([N+](=O)[O-])cccc12
inactive: [1] 101 % of control | endpoint: mean survival time, dose: 100.0 mg/kg/injection, schedule: Q04DX003 (ip), vehicle: Klucel (hydroxypropylcellulose) (HPC) 88 % of control | [2] 105 % of control | endpoint: mean survival time, dose: 200.0 mg/kg/injection, schedule: Q04DX003 (ip), vehicle: Klucel (hydroxypropylcellulose) (HPC) 97 % of control | [3] 98 % of control | endpoint: mean survival time, dose: 400.0 mg/kg/injection, schedule: Q04DX003 (ip), vehicle: Klucel (hydroxypropylcellulose) (HPC) 92 % of control

O=C(C[n+]1ccc2ccccc2c1)c1cccc([N+](=O)[O-])c1
inactive: [8] 105 % of control | [9] 97 % of control | [10] 100 % of control

COCCCNP(=O)(OC)OC
inactive: endpoint: mean survival time, dose: 100.0 mg/kg/injection, schedule: Q01DX001 (ip), vehicle: acetone 98 % of control | endpoint: mean survival time, dose: 100.0 mg/kg/injection, schedule: Q04DX003 (ip), vehicle: acetone 98 % of control | endpoint: mean survival time, dose: 200.0 mg/kg/injection, schedule: Q01DX001 (ip), vehicle: acetone 112 % of control | endpoint: mean survival time, dose: 200.0 mg/kg/injection, schedule: Q04DX003 (ip), vehicle: acetone 100 % of control | endpoint: mean survival time, dose: 400.0 mg/kg/injection, schedule: Q01DX001 (ip), vehicle: acetone 105 % of control | endpoint: mean survival time, dose: 400.0 mg/kg/injection, schedule: Q04DX003 (ip), vehicle: acetone 95 % of control

CC(C)c1ccc([N+](=O)[O-])cc1
inactive: endpoint: mean survival time, dose: 100.0 mg/kg/injection, schedule: Q01DX009 (ip), vehicle: saline with Tween-80 96 % of control | endpoint: mean survival time, dose: 200.0 mg/kg/injection, schedule: Q01DX009 (ip), vehicle: saline with Tween-80 106 % of control

CC(C)=CCC/C(C)=C\C1N(C)CCCN1C
inactive: endpoint: mean survival time, dose: 25.0 mg/kg/injection, schedule: Q01DX009 (ip), vehicle: saline with Tween-80 92 % of control | endpoint: mean survival time, dose: 25.0 mg/kg/injection, schedule: Q04DX003 (ip), vehicle: saline with Tween-80 98 % of control | [11] 88 % of control | endpoint: mean survival time, dose: 50.0 mg/kg/injection, schedule: Q04DX003 (ip), vehicle: saline with Tween-80 92 % of control

COc1ccc(NC(=O)N(C)Cc2ccccc2Cl)cc1
inactive: endpoint: mean survival time, dose: 100.0 mg/kg/injection, schedule: Q04DX002 (ip), vehicle: Klucel (hydroxypropylcellulose) (HPC) 96 % of control | endpoint: mean survival time, dose: 200.0 mg/kg/injection, schedule: Q04DX002 (ip), vehicle: Klucel (hydroxypropylcellulose) (HPC) 110 % of control | endpoint: mean survival time, dose: 400.0 mg/kg/injection, schedule: Q04DX002 (ip), vehicle: Klucel (hydroxypropylcellulose) (HPC) 104 % of control

CCCCn1c(C)nc2c([N+](=O)[O-])cc(C(F)(F)F)cc21
inactive: endpoint: mean survival time, dose: 100.0 mg/kg/injection, schedule: Q01DX001 (ip), vehicle: Klucel (hydroxypropylcellulose) (HPC) 104 % of control | endpoint: mean survival time, dose: 400.0 mg/kg/injection, schedule: Q01DX001 (ip), vehicle: Klucel (hydroxypropylcellulose) (HPC) 98 % of control

Nc1c(Cl)ncnc1NC1CCC(CO)C1 (configuration not stated)
inactive: [4] 103 % of control | [5] 106 % of control

Cc1nc2c(-c3ccccc3)nc(C)n2nc1C
inactive: endpoint: mean survival time, dose: 100.0 mg/kg/injection, schedule: Q04DX002 (ip), vehicle: saline with Tween-80 111 % of control | endpoint: mean survival time, dose: 200.0 mg/kg/injection, schedule: Q04DX002 (ip), vehicle: saline with Tween-80 108 % of control | endpoint: mean survival time, dose: 400.0 mg/kg/injection, schedule: Q04DX002 (ip), vehicle: saline with Tween-80 92 % of control

O=C(NCC(F)(F)C(F)(F)C(F)(F)C(F)(F)C(F)(F)C(F)(F)C(F)(F)F)Oc1ccccc1
inactive: endpoint: mean survival time, dose: 75.0 mg/kg/injection, schedule: Q01DX001 (ip), vehicle: other 104 % of control | endpoint: mean survival time, dose: 150.0 mg/kg/injection, schedule: Q01DX001 (ip), vehicle: other 96 % of control | endpoint: mean survival time, dose: 300.0 mg/kg/injection, schedule: Q01DX001 (ip), vehicle: other 94 % of control

COC(=O)C(Cc1ccccc1)NC(=O)CNC(=O)OCc1ccccc1 (stereo not drawn) (Cbz-Gly-[ξF]-OMe)
inactive: endpoint: mean survival time, dose: 100.0 mg/kg/injection, schedule: Q04DX003 (ip), vehicle: other 106 % of control | endpoint: mean survival time, dose: 200.0 mg/kg/injection, schedule: Q04DX003 (ip), vehicle: other 101 % of control | endpoint: mean survival time, dose: 400.0 mg/kg/injection, schedule: Q04DX003 (ip), vehicle: other 106 % of control
